In ChEMBL document CHEMBL1139425, “Characterization of the binding properties of SIRT2 inhibitors with a N-(3-phenylpropenoyl)-glycine tryptamide backbone” (Bioorg Med Chem, 2008):

Columns and labels:
[1] = target: T1, NAD-dependent protein deacetylase sirtuin-2 (Homo sapiens) (UniProt Q8IXJ6); assay: Inhibition of recombinant GST-tagged SIRT2 at 200 uM by Fluor de Lys fluorescence assay
T1 sequence (whole entry): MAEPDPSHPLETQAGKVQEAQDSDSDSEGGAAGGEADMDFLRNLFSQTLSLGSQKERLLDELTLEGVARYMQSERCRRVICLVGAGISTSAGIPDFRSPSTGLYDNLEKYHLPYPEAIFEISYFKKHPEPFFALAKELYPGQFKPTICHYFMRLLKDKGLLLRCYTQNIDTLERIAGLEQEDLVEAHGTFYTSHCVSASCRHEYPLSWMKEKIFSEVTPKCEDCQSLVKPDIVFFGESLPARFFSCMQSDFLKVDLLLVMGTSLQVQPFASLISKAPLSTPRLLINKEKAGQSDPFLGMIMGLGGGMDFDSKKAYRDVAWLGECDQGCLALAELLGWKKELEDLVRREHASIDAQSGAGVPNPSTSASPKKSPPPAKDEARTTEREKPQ

[2] = target: T2, NAD-dependent protein deacetylase sirtuin-2 (Homo sapiens, UniProt Q8IXJ6); assay: Inhibition of recombinant GST-tagged SIRT2 by Fluor de Lys fluorescence assay
T2 sequence (Q8IXJ6 whole entry): T1 sequence (whole entry)

Row | SMILES | inhibition [1] [%] | IC50 [2] [µM]
1 | C[C@H](NC(=O)/C=C/c1ccccc1)C(=O)NCCc1c[nH]c2ccc(OCc3ccccc3)cc12 | 43.7 | –
2 | CC(C)(NC(=O)/C=C/c1cccc(O)c1)C(=O)NCCc1c[nH]c2ccccc12 | 46.7 | –
3 | COc1cccc(/C=C/C(=O)NC(C)(C)C(=O)NCCc2c[nH]c3ccccc23)c1 | 45.9 | –
4 | COc1ccccc1/C=C/C(=O)NC(C)(C)C(=O)NCCc1c[nH]c2ccccc12 | 35 | –
5 | O=C(CCc1ccccc1)NCCc1c[nH]c2ccccc12 | 44.1 | –
6 | CC(C)(NC(=O)/C=C/c1ccccc1)C(=O)NCCc1c[nH]c2ccccc12 | 49.5 | 100
7 | CC(C)(NC(=O)/C=C/c1ccc(O)cc1)C(=O)NCCc1cccnc1 | 2 | –
8 | C[C@H](NC(=O)CCc1ccccc1)C(=O)NCCc1c[nH]c2ccc(OCc3ccccc3)cc12 | 50.2 | 86
9 | O=C(/C=C/c1ccccc1)NCC(=O)NCCc1c[nH]c2ccccc12 | 22.7 | –

Results, then the compound that gave them:

Row | inhibition [1] [%] | IC50 [2] [µM] | SMILES
10 | 42.1 | – | CC(C)(NC(=O)/C=C/c1cccc([N+](=O)[O-])c1)C(=O)NCCc1c[nH]c2ccccc12
11 | 61.3 | 105 | CC(C)(NC(=O)/C=C/c1ccc(F)cc1)C(=O)NCCc1c[nH]c2ccccc12
12 | 19.5 | – | CC(C)(NC(=O)CCc1ccc(O)cc1)C(=O)NCCc1c[nH]c2ccccc12
13 | 36.6 | – | O=C(NCCc1c[nH]c2ccccc12)[C@@H]1CCCN1C(=O)/C=C/c1ccccc1
14 | 24.2 | – | COc1ccc2[nH]cc(CCNC(=O)CNC(=O)/C=C/c3ccccc3)c2c1
15 | 58 | 173 | O=C(/C=C/c1ccccc1)NCCc1c[nH]c2ccccc12
16 | 12.5 | – | CC(C)(NC(=O)CCc1ccccc1)C(=O)NCCc1c[nH]c2ccccc12
17 | 29.6 | – | C[C@H](NC(=O)/C=C/c1ccccc1)C(=O)NCCc1ccccc1
18 | 44.3 | – | O=C(/C=C/c1ccc(O)cc1)NCCc1c[nH]c2ccccc12
19 | 32.9 | – | O=C(/C=C/c1ccccc1)NCC(=O)NCCc1c[nH]c2ccc(OCc3ccccc3)cc12
20 | 59.6 | 109 | C[C@H](NC(=O)/C=C/c1ccccc1)C(=O)NCCc1c[nH]c2ccccc12
21 | 29.8 | – | O=C(NCCc1c[nH]c2ccc(OCc3ccccc3)cc12)[C@@H]1CCCN1C(=O)CCc1ccccc1
